{"source": "patent US20230137010A1", "about": "“LONG-ACTING APOMORPHINE FORMULATIONS AND INJECTORS FOR THERAPEUTIC DELIVERY OF THE SAME” (Scienture, Inc., priority 2020, published 2023)", "key": {"[1]": {"test": "physchem", "details": "organic solvent or mixture"}, "[2]": {"test": "Solubility of APO-HCL in aqueous media (continuous phase)", "details": "hydrochloride hemihydrate"}, "[3]": {"test": "Color change of APO-HCL solutions indicating oxidation"}, "[4]": {"test": "physchem"}, "[5]": {"test": "Solubility of APO-HCL in organic solvents (O/W microencapsulation solvents and co-solvents for DCM)", "details": "solvent DCM; hydrochloride hemihydrate"}}, "note": "Where a name gives a salt, the structure may show the parent alone.", "data": [{"molecule": "CN1CCc2cccc3c2[C@H]1Cc1ccc(O)c(O)c1-3", "note": "[APO-HCL, apomorphine hydrochloride hemihydrate]", "values": [{"measurement": "solubility", "setting": "[1]; IPA", "result": "< 12.7", "unit": "mg/mL"}, {"measurement": "solubility", "setting": "[1]; N-methyl pyrrolidone (NMP)", "result": 540, "unit": "mg/mL"}, {"measurement": "solubility", "setting": "[1]; THF", "result": "< 13.3", "unit": "mg/mL"}, {"measurement": "solubility", "setting": "[1]; acetic acid", "result": "< 2.7", "unit": "mg/mL"}, {"measurement": "solubility", "setting": "[1]; acetone", "result": "< 0.4", "unit": "mg/mL"}, {"measurement": "solubility", "setting": "[1]; acetonitrile", "result": "< 12.4", "unit": "mg/mL"}, {"measurement": "solubility", "setting": "[1]; benzyl alcohol", "result": 51, "unit": "mg/mL"}, {"measurement": "solubility", "setting": "[1]; chloroform", "result": "< 18.5", "unit": "mg/mL"}, {"measurement": "solubility", "setting": "[1]; dichloromethane (DCM)", "result": "< 0.5", "unit": "mg/mL"}, {"measurement": "solubility", "setting": "[1]; diethyl ether", "result": "< 13.7", "unit": "mg/mL"}, {"measurement": "solubility", "setting": "[1]; dimethyl formamide (DMF)", "result": 508, "unit": "mg/mL"}, {"measurement": "solubility", "setting": "[1]; dimethyl sulfoxide (DMSO)", "result": 514, "unit": "mg/mL"}, {"measurement": "solubility", "setting": "[1]; dioxane", "result": "< 12.4", "unit": "mg/mL"}, {"measurement": "solubility", "setting": "[1]; ethanol", "result": "< 12.7", "unit": "mg/mL"}, {"measurement": "solubility", "setting": "[1]; ethyl acetate", "result": "< 0.4", "unit": "mg/mL"}, {"measurement": "solubility", "setting": "[1]; ethyl formate", "result": "< 0.6", "unit": "mg/mL"}, {"measurement": "solubility", "setting": "[1]; methanol", "result": 92.8, "unit": "mg/mL"}, {"measurement": "solubility", "setting": "[1]", "result": "< 20", "unit": "mg/mL"}, {"measurement": "solubility", "setting": "[1]; toluene", "result": "< 12.3", "unit": "mg/mL"}, {"measurement": "Solubility, maximum concentration", "setting": "[2]; 0.4% PVA, 5% NaCl", "result": "<0.3", "unit": "mg/mL"}, {"measurement": "Aqueous solubility, maximum concentration", "setting": "[2]; Water (20° C. per text)", "result": 17.9, "unit": "mg/mL"}, {"measurement": "color of the solution (indicating oxidation)", "setting": "[3]; PVA solution containing Tris buffer, due to severe oxidation", "result": "dark brown"}, {"measurement": "color of the solution (indicating oxidation)", "setting": "[3]; PVA solution containing phosphate buffer, due to severe oxidation", "result": "dark brown"}, {"measurement": "color of the solution (indicating oxidation)", "setting": "[3]; […]", "result": "only very limited discoloration"}, {"measurement": "color of the solution (indicating oxidation)", "setting": "[3]; in DMF, oxidation hardly occurred", "result": "slightly yellowish"}, {"measurement": "color of the solution (indicating oxidation)", "setting": "[3]; in DMSO, oxidation hardly occurred", "result": "slightly yellowish"}, {"measurement": "color of the solution (indicating oxidation)", "setting": "[3]; in NMP, oxidation hardly occurred", "result": "slightly yellowish"}, {"measurement": "color of the solution (indicating oxidation)", "setting": "[3]; in benzyl alcohol, indicating severe oxidation", "result": "dark brown"}, {"measurement": "color of the solution (indicating oxidation)", "setting": "[3]; in methanol, indicating severe oxidation", "result": "green"}, {"measurement": "solubility", "setting": "[4]; aqueous polyvinyl alcohol (PVA) solution, aqueous with cosolvent or surfactant or cyclodextrin", "result": "< 300", "unit": "µg/mL"}, {"measurement": "solubility", "setting": "[4]; aqueous polyvinyl alcohol (PVA) solution, pH 8, aqueous with cosolvent or surfactant or cyclodextrin", "result": "< 1000", "unit": "µg/mL"}, {"measurement": "solubility", "setting": "[4]; aqueous polyvinyl alcohol (PVA) solution, pH 8.5, aqueous with cosolvent or surfactant or cyclodextrin", "result": "< 1000", "unit": "µg/mL"}, {"measurement": "solubility", "setting": "[4]; water, 20 °C", "result": 17800, "unit": "µg/mL"}, {"measurement": "Solubility, actual concentration", "setting": "[5]", "result": "<0.5", "unit": "mg/mL"}]}]}
